*1 amine or outer side, *2 acyl side, *3 side chain or, on linkers, in order; H or OH if unused. Where a SMILES comes first, the peptide text is derived from it. [ ]: non-standard residue; d: D form. The star is where a group is joined. ξ: configuration not given here. ξ3Amino2oxobutanoyl = CC(N[*:1])C(=O)C(=O)[*:2]; 2Nal = N[CH](Cc1ccc2ccccc2c1)C(=O)O; Cbz = O=C(OCc1ccccc1)*
Tests used:
Cathepsin L = Cathepsin L (Homo sapiens, UniProt P07711); assay: Cathepsin L enzyme assay; type: biochemical; settings: Ki by Morrison equation; pH 5.5, substrate Z-Phe-Arg-Amc; read-out: Cat L
Description: Two wells contained DMSO only for controls.
Velocity was converted to μM/sec.

Calpain = Calpain enzyme assay; type: biochemical; settings: Ki by Morrison equation; pH 7.5, 5 mM CaCl2
Cathepsin B = Cathepsin B (Homo sapiens, UniProt P07858); assay: Cathepsin B enzyme assay; settings: Cat B (μM), Ki by Morrison equation; pH 6.0, substrate Z-Phe-Arg-Amc

Cathepsin L, sequence (P07711 114-333, species assumed): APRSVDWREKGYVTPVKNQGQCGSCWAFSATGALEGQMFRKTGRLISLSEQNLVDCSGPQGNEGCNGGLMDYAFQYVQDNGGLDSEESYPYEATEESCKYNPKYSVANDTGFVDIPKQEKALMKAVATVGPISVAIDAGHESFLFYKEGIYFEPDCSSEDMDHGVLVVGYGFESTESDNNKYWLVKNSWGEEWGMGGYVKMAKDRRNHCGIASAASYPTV

SMILES	Ki (Cathepsin L) [nM]	Ki (Calpain) [nM]	Ki (Cathepsin B) [µM]
CCC(C)C(NC(=O)C(=O)C(C)NC(=O)C(Cc1ccccc1)NC(=O)Cc1ccccc1)C(=O)NC(C)(C)C(=O)O (stereo not shown) [PHELIX149, 12-benzyl-5-(sec-butyl)-2,2,9-trimethyl-4,7,8,11,14-pentaoxo-15-phenyl-3,6,10,13-tetraazapentadecanoic acid]	816	> 100000	0.0318
CCC(C)C(NC(=O)C(=O)C(Cc1ccccc1)NC(=O)C(Cc1ccccc1)NC(=O)Cc1ccccc1)C(=O)NC(C)(C)C(=O)O (stereo not shown) [PHELIX150, 9,12-dibenzyl-5-(sec-butyl)-2,2-dimethyl-4,7,8,11,14-pentaoxo-15-phenyl-3,6,10,13-tetraazapentadecanoic acid]	39.2	5110	0.0303
CC[C@H](C)[C@H](NC(=O)C(=O)C(Cc1ccccc1)NC(=O)C(Cc1ccccc1)NC(=O)Cc1ccccc1)C(=O)N1CCC[C@H]1C(=O)O (stereo partly shown) [PHELIX156, (2-oxo-4-phenyl-3-(3-phenyl-2-(2-phenylacetamido)propanamido)butanoyl)isoleucylproline]	1.58	9850	0.0102
CC(NC(=O)C(Cc1ccccc1)NC(=O)Cc1ccccc1)C(=O)C(=O)NC(Cc1ccccc1)C(=O)NC(C)(C)C(=O)O (stereo not shown) [PHELIX157, 5,12-dibenzyl-2,2,9-trimethyl-4,7,8,11,14-pentaoxo-15-phenyl-3,6,10,13-tetraazapentadecanoic acid]	56.2	34600	0.0028
CCC(C)C(NC(=O)C(=O)C(C)NC(=O)C(Cc1ccccc1)NC(=O)Cc1ccc(-c2ccccc2)cc1)C(=O)NC(C)(C)C(=O)O (stereo not shown) [PHELIX159, 15-([1,1′-biphenyl]-4-yl)-12-benzyl-5-(sec-butyl)-2,2,9-trimethyl-4,7,8,11,14-pentaoxo-3,6,10,13-tetraazapentadecanoic acid]	2450	16600	0.0414
CC[C@H](C)[C@H](NC(=O)C(=O)C(C)(C)NC(=O)[C@H](Cc1ccccc1)NC(=O)Cc1ccccc1)C(=O)NC(C)(C)C(=O)O [PHELIX160, 12-benzyl-5-(sec-butyl)-2,2,9,9-tetramethyl-4,7,8,11,14-pentaoxo-15-phenyl-3,6,10,13-tetraazapentadecanoic acid]	63400	51000	111
CCC(C)C(NC(=O)C(=O)C(C)NC(=O)CCNC(=O)OCc1ccccc1)C(=O)NC(C)(C)C(=O)O (stereo not shown) [PHELIX164, 13-(sec-butyl)-9,16,16-trimethyl-3,7,10,11,14-pentaoxo-1-phenyl-2-oxa-4,8,12,15-tetraazaheptadecan-17-oic acid]	> 1000	> 100000	34.6
CC(NC(=O)C(Cc1ccccc1)NC(=O)Cc1ccccc1)C(=O)C(=O)NC(CC1CC1)C(=O)NC(C)(C)C(=O)O (stereo not shown) [PHELIX166, 12-benzyl-5-(cyclopropylmethyl)-2,2,9-trimethyl-4,7,8,11,14-pentaoxo-15-phenyl-3,6,10,13-tetraazapentadecanoic acid]	586	> 100000	0.0081
CCC(C)C(NC(=O)C(=O)C(C)NC(=O)C(Cc1cccc(C(F)(F)F)c1)NC(=O)Cc1ccccc1)C(=O)NC(C)(C)C(=O)O (stereo not shown) [PHELIX170, 5-(sec-butyl)-2,2,9-trimethyl-4,7,8,11,14-pentaoxo-15-phenyl-12-(3-(trifluoro-methyl)benzyl)-3,6,10,13-tetraazapentadecanoic acid]	1190	59700	0.022
CCC(C)C(NC(=O)C(=O)C(C)NC(=O)C(CC(C)C)NC(=O)Cc1ccccc1)C(=O)NC(C)(C)C(=O)O (stereo not shown) [PHELIX171, 5-(sec-butyl)-12-isobutyl-2,2,9-trimethyl-4,7,8,11,14-pentaoxo-15-phenyl-3,6,10,13-tetraazapentadecanoic acid]	632	3900	0.56
CCC(C)C(NC(=O)C(=O)C(C)NC(=O)[C@H](Cc1cncs1)NC(=O)Cc1ccccc1)C(=O)NC(C)(C)C(=O)O (stereo partly drawn) [PHELIX173, (12S)-5-(sec-butyl)-2,2,9-trimethyl-4,7,8,11,14-pentaoxo-15-phenyl-12-(thiazol-5-ylmethyl)-3,6,10,13-tetraazapentadecanoic acid]	3330	> 100000	0.72
CCC(C)C(NC(=O)C(=O)C(C)NC(=O)C(Cc1cccc(C#N)c1)NC(=O)Cc1ccccc1)C(=O)NC(C)(C)C(=O)O (stereo not shown) [PHELIX176, 5-(sec-butyl)-12-(3-cyanobenzyl)-2,2,9-trimethyl-4,7,8,11,14-pentaoxo-15-phenyl-3,6,10,13-tetraazapentadecanoic acid]	2690		0.0378
CC(NC(=O)C(Cc1ccccc1)NC(=O)Cc1ccccc1)C(=O)C(=O)NC(CC1CCCCC1)C(=O)NC(C)(C)C(=O)O (stereo not shown) [PHELIX177, 12-benzyl-5-(cyclohexylmethyl)-2,2,9-trimethyl-4,7,8,11,14-pentaoxo-15-phenyl-3,6,10,13-tetraazapentadecanoic acid]	92.2		0.0012
CC(NC(=O)C(Cc1ccccc1)NC(=O)Cc1ccccc1)C(=O)C(=O)N[C@@H](Cc1ccccc1)C(=O)N1CCC[C@H]1C(=O)O (stereo partly shown) [PHELIX178, (2-oxo-3-(3-phenyl-2-(2-phenylacetamido)propanamido)butanoyl)phenylalanyl proline]	38.5		0.0067
CCC(C)C(NC(=O)C(=O)C(C)NC(=O)C(Cc1ccccc1)NC(=O)Cc1ccccc1)C(=O)NC(C)(C)C(=O)OC (stereo not shown) [PHELIX179, methyl 12-benzyl-5-(sec-butyl)-2,2,9-trimethyl-4,7,8,11,14-pentaoxo-15-phenyl-3,6,10,13-tetraazapentadecanoate]	881		17.8
CC(NC(=O)C(Cc1ccccc1)NC(=O)Cc1ccccc1)C(=O)C(=O)NC(Cc1ccc(C(C)(C)C)cc1)C(=O)NC(C)(C)C(=O)O [PHELIX180, (5S,12)S-12-benzyl-5-(4-(tert-butyl)benzyl)-2,2,9-trimethyl-4,7,8,11,14-pentaoxo-15-phenyl-3,6,10,13-tetraazapentadecanoic acid]	127		0.197
CCCC(NC(=O)C(=O)C(C)NC(=O)C(Cc1ccccc1)NC(=O)Cc1ccccc1)C(=O)NC(C)(C)C(N)=O (stereo not shown) [PHELIX243, N-(1-amino-2-methyl-1-oxopropan-2-yl)-2-(2-oxo-3-(3-phenyl-2-(2-phenylacetamido)propanamido)butanamido)pentanamide]	5580	> 10000	> 10
CC(C)CC(NC(=O)C(Cc1ccccc1)NC(=O)OCc1ccccc1)C(=O)NC(C)C(=O)C(=O)NCC(=O)NC(Cc1ccc2ccccc2c1)C(N)=O (stereo not shown) [PHELIX258, benzyl (1-amino-12-isobutyl-9-methyl-2-(naphthalen-2-ylmethyl)-1,4,7,8,11,14-hexaoxo-16-phenyl-3,6,10,13-tetraazahexadecan-15-yl)carbamate] (Cbz-FL[ξ3Amino2oxobutanoyl]G[2Nal]-NH2; configuration not given here)	6.14	1.9	0.42
CC(NC(=O)C(Cc1ccccc1)NC(=O)Cc1ccccc1)C(=O)C(=O)NC(Cc1ccc(F)cc1)C(=O)NC(Cc1ccc(-c2ccccc2)cc1)C(N)=O (stereo not shown) [PHELIX262]	0.04	> 10000	0.435

— patent US20190085024A1, “Alpha-Ketoamide Inhibitors Of Cysteine Proteases” (Phelix Therapeutics, priority 2017, published 2019)
